The melting point is the temperature, or range, at which the solid turns liquid. What is called pKi is the Ki on a negative log10 scale, so that one unit is a factor of ten.

Molecules are shown by their SMILES. pKi: −log10 of the molar value. Where a name gives a salt, the structure may show the parent alone.

Tested on in the first data set: not given
Assay: not given
Settings: not given
Compound `O=C(Nc1ccccc1F)OCc1cn(-c2cc3cc(C(=O)O)c(=O)[nH]c3cc2[N+](=O)[O-])cn1` (as salt: HCl) [Example 6] gave a melting point of 226 to 228 °C.

Regarding `O=C(Nc1ccccc1)OCc1cn(-c2cc3cc(C(=O)O)c(=O)[nH]c3cc2Cl)cn1` [Example 41, 7-Chloro-1,2-dihydro-2-oxo-6-(4-((phenylcarbamoyloxy)methyl)imidazole-1-yl)quinoline-3-carboxylic acid], the melting point was 180 to 182 °C.

In turn, `O=C(Nc1ccc(C(=O)O)cc1)OCc1cn(-c2cc3cc(C(=O)O)c(=O)[nH]c3cc2Cl)cn1` [Example 44, 6-((((4-Carboxyphenyl)carbamoyloxy)methyl)imidazole-1-yl)-7-chloro-1,2-dihydro-2-oxoquinoline-3-carboxylic acid] returned a melting point of 249 to 251 °C.

With `O=C(Nc1cccc(C(=O)O)c1)OCc1cn(-c2cc3cc(C(=O)O)c(=O)[nH]c3cc2Cl)cn1` [Example 43, 6-((((3-Carboxyphenyl)carbamoyloxy)methyl)imidazole-1-yl)-7-chloro-1,2-dihydro-2-oxoquinoline-3-carboxylic acid], the melting point was 263 to 265 °C (dec.).

On to `O=C(Nc1ccccc1Br)OCc1cn(-c2cc3cc(C(=O)O)c(=O)[nH]c3cc2C(F)(F)F)cn1` [Example 25, 6-(4-(((2-Bromophenyl)carbamoyloxy)methyl)imidazole-1-yl)-1,2-dihydro-2-oxo-7-trifluoromethylquinoline-3-carboxylic acid], for which the melting point was in the range of 145 to 147 °C.

`O=C(NCc1ccccc1)OCc1cn(-c2cc3cc(C(=O)O)c(=O)[nH]c3cc2C(F)(F)F)cn1` [Example 32] registered a melting point of 169 to 171 °C.

Turning to `O=C(Nc1ccc(C(=O)O)cc1)OCc1cn(-c2cc3cc(C(=O)O)c(=O)[nH]c3cc2C(F)(F)F)cn1` [Example 19, 6-(4-(((4-Carboxyphenyl)carbamoyloxy)methyl)imidazole-1-yl)-1,2-dihydro-2-oxo-7-trifluoromethylquinoline-3-carboxylic acid], the melting point was in the range of 218 to 220 °C.

The target in a further data set is AMPA receptor. In words: Binding experiment against AMPA receptor ([3H]-AMPA binding, crude synaptic membranes from cerebral cortex). Conditions: rat cerebral cortex crude synaptic membranes; [3H]-AMPA 5 nmol/L, potassium thiocyanate 100 mmol/L, 30 minutes at 0° C.; IC50 converted to Ki. The procedure: Binding Experiment Against AMPA Receptor
To a crude synaptic membranes preparation prepared from cerebral cortex in rat were added [^3H]-AMPA (final concentration: 5 nmol/L) that binds selectively to AMPA receptors, potassium thiocyanate (final concentration: 100 mmol/L) and testing compound, and the mixture was incubated for 30 minutes at 0° C. After the reaction was stopped by suction filtration, the radioactivity on filter was measured with liquid scintillation counter. The specific binding level of [^3H]-AMPA was determined by subtracting the non-specific binding level in the presence of glutamic acid (0.1 mmol/L) from total binding level. The [^3H]-AMPA binding in the absence of testing compound was put on 100, and the concentration of compound to decrease by 50% (IC50 value) was determined, which was converted to Ki value to calculate the binding capacity of each compound to AMPA receptor (Eur. J. Pharmacol., 1993, 246, 195-204).
`O=C(Nc1ccccc1)OCc1cn(-c2cc3cc(C(=O)O)c(=O)[nH]c3cc2[N+](=O)[O-])cn1` [Example 2, 1,2-Dihydro-7-nitro-2-oxo-6-(4-((phenylcarbamoyloxy)methyl)imidazole-1-yl)quinoline-3-carboxylic acid] showed a negative-log Ki (pKi) of 7.65.

In turn, `O=C(Nc1ccc(C(=O)O)cc1)OCc1cn(-c2cc3cc(C(=O)O)c(=O)[nH]c3cc2[N+](=O)[O-])cn1` [Example 16, 6-(4-(((4-Carboxyphenyl)carbamoyloxy)methyl)imidazole-1-yl)-1,2-dihydro-7-nitro-2-oxoquinoline-3-carboxylic acid] gave a negative-log Ki (pKi) of 7.78.

Compound `CCOC(=O)c1ccc(NC(=O)OCc2cn(-c3cc4cc(C(=O)OCC)c(=O)[nH]c4cc3C(F)(F)F)cn2)cc1` [Example 18, Ethyl 1,2-dihydro-6-(4-(((4-ethoxycarbonylphenyl)carbamoyloxy)methyl)imidazole-1-yl)-2-oxo-7-trifluoromethylquinoline-3-carboxylate] gave a negative-log Ki (pKi) of 7.74.

In turn, `O=C(Nc1ccccc1F)OCc1cn(-c2cc3cc(C(=O)O)c(=O)[nH]c3cc2[N+](=O)[O-])cn1` [Example 6] had a pKi of 8.09.

The compound `O=C(Nc1cccc(C(=O)O)c1)OCc1cn(-c2cc3cc(C(=O)O)c(=O)[nH]c3cc2[N+](=O)[O-])cn1` [Example 15, 6-(4-(((3-Carboxyphenyl)carbamoyloxy)methyl)imidazole-1-yl)-1,2-dihydro-7-nitro-2-oxoquinoline-3-carboxylic acid] had a pKi of 7.75.

The values are drawn from patent US6562839B1, “6-substituted heteroquinolinecarboxylic acid derivatives and addition salts thereof and processes for the preparation of both” (Kyorin Pharmaceutical Co., Ltd., priority 1999, dated 2003).
